These molecules were tested against T1, CRTH2 (Homo sapiens, UniProt Q9Y5Y4) (assay: Determination of Ki (radioligand binding assay, equilibrium competition against [3H]PGD2)). Conditions: average of at least three independent dose response experiments.
T1 sequence (Q9Y5Y4 1-395): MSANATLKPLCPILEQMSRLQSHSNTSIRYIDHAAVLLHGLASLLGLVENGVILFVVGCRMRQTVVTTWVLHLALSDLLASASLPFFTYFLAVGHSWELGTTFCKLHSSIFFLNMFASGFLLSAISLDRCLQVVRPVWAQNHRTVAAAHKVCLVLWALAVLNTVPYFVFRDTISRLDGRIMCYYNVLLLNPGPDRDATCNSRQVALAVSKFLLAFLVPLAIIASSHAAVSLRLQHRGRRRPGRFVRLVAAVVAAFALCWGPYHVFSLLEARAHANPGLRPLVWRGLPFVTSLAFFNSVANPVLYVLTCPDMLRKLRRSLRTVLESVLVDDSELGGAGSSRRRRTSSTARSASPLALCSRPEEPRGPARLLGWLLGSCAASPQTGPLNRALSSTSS
Set-up: expressed in transfected cells; host or cells: HEK293 (EBNA) cells, membrane preparation
Description: The inhibitory activity can be investigated by a radioligand binding assay (Sawyer et al., Br. J. Pharmocol 2002, 137, 1163-72). The radioligand binding assay was performed at room temperature in binding buffer (10 mM HEPES/KOH pH […], with protease inhibitor cocktail tablets), containing 1.5 nM [^3H]PGD2 (Amersham, 156 Cie/mmol), and 10 μg of hCRTH2 HEK293 (EBNA) cell membrane protein in a final volume of 100 μl in 96 well plates (Corning, USA). Non-specific binding was determined in the presence of 1 μM PGD2 (Cayman, USA). Competing spiro-indolinones were diluted in dimethylsulphoxide so that the total volume of dimethylsulfoxide was kept constant at 1% dimethylsulphoxide (Me2SO) Serial dilutions of 100 μM and […] were prepared. 10 μl each of these spiro-indolinone stock solutions were added. Incubation (60 min at room temperature) was terminated by rapid filtration through 96 wells hydrophobic GF/C Unifilter plates (Whatman, USA). Filters were washed twice with 250 μl of Tris-HCl pH 7.4, 10 mM MnCl2, and residual radioligand bound to the filters was mixed to 100 μl of liquid scintillation cocktail (Optiphase Supermix, Perkin Elmer, USA) and binding activity was determined by counting residual radioligand using a 1450 Micro-beta scintillation counter (Wallac, UK). The following representative compounds were tested. All inhibited the binding of PGD2 to CRTH2 by more than 70%. • (1′-benzyl-5-chloro-2,2′,5′-trioxospiro[indole-3,3′-pyrrolidin]-1(2H)-yl)acetic acid • (1′-benzyl-5-fluoro-2,2′,5′-trioxospiro[indole-3,3′-pyrrolidin]-1(2H)-yl)acetic acid • 4-(1′-allyl-5-chloro-2,2′,5′-trioxospiro[indole-3,3′-pyrrolidin]-1(2H)-yl)butanoic acid • [5-chloro-1′-(2-methoxyethyl)-2,2′,5′-trioxospiro[indole-3,3′-pyrrolidin]-1(2H)-yl]acetic acid • 4-(1′-benzyl-5-chloro-2,2′,5′-trioxospiro[indole-3,3′-pyrrolidin]-1(2H)-yl)butanoic acid • (1′-benzyl-5-methoxy-2,2′,5′-trioxospiro[indole-3,3′-pyrrolidin]-1(2H)-yl)acetic acid • [5-fluoro-1′-[(2-methoxyethoxy)methyl]-2,2′,5′-trioxospiro[indole-3,3′-pyrrolidin]-1(2H)-yl]acetic acid • 4-(1′-allyl-5-fluoro-2,2′,5′-trioxospiro[indole-3,3′-pyrrolidin]-1(2H)-yl)butanoic acid • 4-(1′-benzyl-5-fluoro-2,2′,5′-trioxospiro[indole-3,3′-pyrrolidin]-1(2H)-yl)butanoic acid
Ki values were determined by equilibrium competition binding experiments against [^3H]PGD2. Ki values were calculated from the formula below and represent the average of at least three independent dose response experiments. The Ki values give the ligand concentrations necessary to inhibit 50% of the binding of [^3H]PGD2 to CRTH2. Ki=IC50/(1+[Concentration of Ligand]/Kd)]
All experiments were performed in 96 well plates, in a final volume of 100 μl according to the above described filtration assay. The concentration of membranes and 3 [H]PGD2, as well as the positive and negative controls were identical to the conditions described above.
`Cc1nc(CN2C(=O)CC3(C2=O)C(=O)N(CC(=O)O)c2ccc(Cl)cc23)cs1` (centres unmarked) [Compound 1, [5-chloro-1′-[(2-methyl-1,3-thiazol-4-yl)methyl]-2,2′,5′-trioxospiro[indole-3,3′-pyrrolidin]-1(2H)-yl]acetic acid] gave a Ki of 39 nM.
`O=C(O)CN1C(=O)C2(CC(=O)N(Cc3ccc4ccccc4n3)C2=O)c2cc(Cl)ccc21` (centres unmarked) [Compound 3, [5-chloro-2,2′,5′-trioxo-1′-(quinolin-2-ylmethyl)spiro[indole-3,3′-pyrrolidin]-1(2H)-yl]acetic acid] showed a Ki of 93 nM.
`N#Cc1ccc(CN2C(=O)CC3(C2=O)C(=O)N(CC(=O)O)c2ccc(Cl)cc23)cc1` (centres unmarked) [Compound 4, [5-chloro-1′-(4-cyanobenzyl)-2,2′,5′-trioxospiro[indole-3,3′-pyrrolidin]-1(2H)-yl]acetic acid] was tested, and the Ki was 89 nM.
`O=C(O)CN1C(=O)C2(CC(=O)N(Cc3cccc(Cl)c3)C2=O)c2cc(Cl)ccc21` (centres unmarked) [Compound 5, [5-chloro-1′-(3-chlorobenzyl)-2,2′,5′-trioxospiro[indole-3,3′-pyrrolidin]-1(2H)-yl]acetic acid] gave a Ki of 73 nM.
Work on `O=C(O)CN1C(=O)C2(CC(=O)N(Cc3ccc(Cl)c(Cl)c3)C2=O)c2cc(Cl)ccc21` (centres unmarked) [Compound 6, [5-chloro-1′-(3,4-dichlorobenzyl)-2,2′,5′-trioxospiro[indole-3,3′-pyrrolidin]-1(2H)-yl]acetic acid] yielded a Ki of 100 nM.
In the case of `O=C(O)CN1C(=O)C2(CC(=O)N(Cc3cccc(Oc4ccccc4)c3)C2=O)c2cc(Cl)ccc21` (centres unmarked) [Compound 10, [5-chloro-2,2′,5′-trioxo-1′-(3-phenoxybenzyl)spiro[indole-3,3′-pyrrolidin]-1(2H)-yl]acetic acid], the Ki is reported as 148 nM.
Work on `O=C(O)CN1C(=O)C2(CC(=O)N(CC3COc4ccccc4O3)C2=O)c2cc(Cl)ccc21` (centres unmarked) [Compound 16, [5-chloro-1′-(2,3-dihydro-1,4-benzodioxin-2-ylmethyl)-2,2′,5′-trioxospiro[indole-3,3′-pyrrolidin]-1(2H)-yl]acetic acid] yielded a Ki of 213 nM.
`O=C(O)CN1C(=O)C2(CC(=O)N(Cc3ccccn3)C2=O)c2cc(Cl)ccc21` (centres unmarked) [Compound 17, [5-chloro-2,2′,5′-trioxo-1′-(pyridin-2-ylmethyl)spiro[indole-3,3′-pyrrolidin]-1(2H)-yl]acetic acid] showed a Ki of 170 nM.
`O=C(O)CN1C(=O)C2(CC(=O)N(Cc3ccc(C(F)(F)F)o3)C2=O)c2cc(Cl)ccc21` (centres unmarked) [Compound 18, [5-chloro-2,2′,5′-trioxo-1′-{[5-(trifluoromethyl)-2-furyl]methyl}spiro[indole-3,3′-pyrrolidin]-1(2H)-yl]acetic acid] was tested, and the Ki was 270 nM.
`O=C(O)CN1C(=O)C2(CC(=O)N(CCc3ccccc3)C2=O)c2cc(Cl)ccc21` (centres unmarked) [Compound 23, [5-chloro-2,2′,5′-trioxo-1′-(2-phenylethyl)spiro[indole-3,3′-pyrrolidin]-1(2H)-yl]acetic acid] showed a Ki of 267 nM.
`O=C(O)CN1C(=O)C2(CC(=O)N(Cc3cn4ccccc4n3)C2=O)c2cc(Cl)ccc21` (centres unmarked) [Compound 24, [5-chloro-1′-(imidazo[1,2-a]pyridin-2-ylmethyl)-2,2′,5′-trioxospiro[indole-3,3′-pyrrolidin]-1(2H)-yl]acetic acid] gave a Ki of 705 nM.
`O=C(O)CN1C(=O)C2(CC(=O)N(C/C=C/c3ccccc3)C2=O)c2cc(Cl)ccc21` (centres unmarked) [Compound 25, [5-chloro-2,2′,5′-trioxo-1′-[(2E)-3-phenylprop-2-en-1-yl]spiro[indole-3,3′-pyrrolidin]-1(2H)-yl]acetic acid] was tested, and the Ki was 768 nM.
`CCOCCN1C(=O)CC2(C1=O)C(=O)N(CC(=O)O)c1ccc(Cl)cc12` (centres unmarked) [Compound 28, [5-chloro-1′-(2-ethoxyethyl)-2,2′,5′-trioxospiro[indole-3,3′-pyrrolidin]-1(2H)-yl]acetic acid] showed a Ki of 1030 nM.
In the case of `O=C(O)CN1C(=O)C2(CC(=O)N(CCOCc3ccccc3)C2=O)c2cc(Cl)ccc21` (centres unmarked) [Compound 29, [1′-[2-(benzyloxy)ethyl]-5-chloro-2,2′,5′-trioxospiro[indole-3,3′-pyrrolidin]-1(2H)-yl]acetic acid], the Ki is reported as 1130 nM.
